One data set concerns the target hCA IX (Homo sapiens, UniProt Q16790). As to the kind of experiment: stopped flow CO2 hydrase assay, hCA IX. In kind it is biochemical. To be noted: errors ±5–10% of the stated values. On the procedure:
(§1) The activity of the CA-catalyzed CO2 hydration reaction was evaluated employing an applied photophysics stopped-flow instrument. […] A minimum of six traces of the starting 5–10% of the reaction were analysed to measure the initial velocity for each inhibitor. In a similar manner, the uncatalyzed rates were evaluated and subtracted from the overall calculated rates. Stock inhibitor solutions (10 mM) were prepared in distilled–deionized water, and dilutions up to 0.01 nM were prepared with distilled–deionized water after that. Preincubation of the inhibitor enzyme solutions at room temperature to enable the formation of the E-I complex was carried out for 15 min before starting the experiment. The inhibition constants were determined employing PRISM 3, while the kinetic parameters for the uninhibited enzymes were calculated using Lineweaver-Burk plots that comprise the mean of at least three separate measurements with errors ranging to ±5–10% of the stated values[37]^,[38].
(§2) This panel comprised the two ubiquitously expressed cytosolic hCA I and II isoforms, along with the two tumour-related transmembrane hCA IX and XII isoforms.

A further data set deals with hCA II (Homo sapiens, UniProt P00918). As to the kind of experiment: stopped flow CO2 hydrase assay, hCA II. To be noted: for inhibitory activity against hCA II (in words): compared to their para-sulphonamide analogues; for Ki: stopped flow CO2 hydrase assay, errors ±5–10% of the stated values; for folds of potency compared to AAZ against isoform hCA II: relative to AAZ (12.1 nM). In kind it is biochemical. On the procedure: as §1, §2

In a further data set the target is hCA I (Homo sapiens, UniProt P00915). As to the kind of experiment: stopped flow CO2 hydrase assay, hCA I. To be noted: for Ki: stopped flow CO2 hydrase assay, errors ±5–10% of the stated values; for folds higher potency against hCA I when compared to the standard (AAZ, V): relative to AAZ. In kind it is biochemical. Here is the method: as §1, §2
Chain of hCA I (P00915 whole entry): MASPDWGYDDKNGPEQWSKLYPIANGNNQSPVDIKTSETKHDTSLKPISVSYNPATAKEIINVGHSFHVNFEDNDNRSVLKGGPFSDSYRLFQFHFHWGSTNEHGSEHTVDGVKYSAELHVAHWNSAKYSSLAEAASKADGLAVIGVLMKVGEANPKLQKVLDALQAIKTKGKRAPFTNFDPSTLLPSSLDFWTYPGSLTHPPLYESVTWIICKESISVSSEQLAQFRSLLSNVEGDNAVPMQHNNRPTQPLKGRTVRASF
The next data set deals with hCA XII (Homo sapiens, UniProt O43570). As to the kind of experiment: stopped flow CO2 hydrase assay, hCA XII. In kind it is biochemical. The following applies: errors ±5–10% of the stated values. On the procedure: as §1, §2
Chain of hCA XII (O43570 25-354): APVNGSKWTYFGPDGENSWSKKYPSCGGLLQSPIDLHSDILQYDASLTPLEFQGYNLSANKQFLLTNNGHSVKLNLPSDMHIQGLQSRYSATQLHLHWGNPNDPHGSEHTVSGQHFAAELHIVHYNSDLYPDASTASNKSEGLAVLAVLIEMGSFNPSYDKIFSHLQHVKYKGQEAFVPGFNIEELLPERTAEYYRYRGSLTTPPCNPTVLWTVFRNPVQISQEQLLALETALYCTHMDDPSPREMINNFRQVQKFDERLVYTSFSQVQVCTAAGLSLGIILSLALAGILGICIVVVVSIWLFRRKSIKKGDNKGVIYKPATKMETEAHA

The Ki is the equilibrium dissociation constant of an inhibitor or competing ligand from its target. One may read the melting point as the temperature, or range, at which the solid turns liquid. `NS(=O)(=O)c1cccc(Nc2ncnc3ccc(-c4ccccc4)cc23)c1` [Compound 4l, 3-((6-phenylquinazolin-4-yl)amino)benzenesulfonamide] displayed a melting point of 327 to 329 °C. Also, the affinity on hCA IX corresponds to a Ki of 88.8 nM. In addition, at hCA II, the “inhibitory activity against hCA II (in words)” value was “loss of activity” and the Ki was 678 nM. Moreover, the Ki on hCA I came to 6570 nM. In addition, on hCA XII, the Ki came to 89.4 nM.
As for `NS(=O)(=O)c1ccc(Nc2ncnc3ccc(-c4ccc(N5CCOCC5)cc4)cc23)cc1` [Compound 4h, 4-((6–(4-morpholinophenyl)quinazolin-4-yl)amino)benzenesulfonamide], the inhibition constant (Ki) on hCA IX was 337 nM; at hCA II it was 112 nM; on hCA I, 548 nM; on hCA XII, 49.8 nM.
With `NS(=O)(=O)c1cccc(Nc2ncnc3cc(-c4cccc(O)c4)ccc23)c1` [Compound 4k, 3-((7–(3-hydroxyphenyl)quinazolin-4-yl)amino)benzenesulfonamide], the Ki came to 90.3 nM at hCA IX, 2520 nM at hCA II, 4680 nM on hCA I and 69.7 nM at hCA XII. On hCA II, the “inhibitory activity against hCA II (in words)” value is reported as “loss of activity”.
`NS(=O)(=O)c1ccc(Nc2ncnc3ccc(-c4cccc([N+](=O)[O-])c4)cc23)cc1` [Compound 4d, 4-((6–(3-nitrophenyl)quinazolin-4-yl)amino)benzenesulfonamide]: the inhibitory constant (Ki) is 265 nM on hCA IX, 55.7 nM on hCA II, 588 nM on hCA I and 90.7 nM at hCA XII.
The matching figures for `NS(=O)(=O)c1cccc(Nc2ncnc3ccc(-c4ccc(F)cc4)cc23)c1` [Compound 4g, 3-((6–(4-fluorophenyl)quinazolin-4-yl)amino)benzenesulfonamide]: 229 nM, 231 nM, 3130 nM and 30.5 nM.
With `COc1ccc(-c2ccc3ncnc(Nc4ccc(S(N)(=O)=O)cc4)c3c2)cc1` [Compound 4e, 4-((6–(4-methoxyphenyl)quinazolin-4-yl)amino)benzenesulfonamide], the Ki on hCA IX is 86.9 nM; at hCA II, 4.6 nM; at hCA I, 91.2 nM; at hCA XII it was 77 nM. At hCA II, the “folds of potency compared to AAZ against isoform hCA II” value (“folds of potency compared to AAZ” below) worked out at 2.6 folds. At hCA I, the “folds higher potency against hCA I when compared to the standard (AAZ, V)” value (from here on “folds higher potency against hCA I when”) was found to be 2.7 folds.
`NS(=O)(=O)c1cccc(Nc2ncnc3ccc(Br)cc23)c1` [Compound 3b]: the Ki was found to be 95.3 nM on hCA IX, 5760 nM at hCA II, 7100 nM at hCA I and 39.4 nM on hCA XII. Moreover, the “inhibitory activity against hCA II (in words)” value against hCA II is given as “loss of activity”. The “inhibitory activity against hCA I (in words)” value at hCA I is listed as “lost all activity”.
Take `NS(=O)(=O)c1ccc(Nc2ncnc3ccc(-c4ccccc4)cc23)cc1` [Compound 4a, 4-((6-phenylquinazolin-4-yl)amino)benzenesulfonamide]: the Ki was 180 nM at hCA IX, 2.4 nM at hCA II, 600 nM on hCA I and 65.7 nM at hCA XII. In addition, the “folds of potency compared to AAZ” value at hCA II amounted to 5 folds.
On to `NS(=O)(=O)c1ccc(Nc2ncnc3cc(-c4cccc(O)c4)ccc23)cc1` [Compound 4j, 4-((7–(3-hydroxyphenyl)quinazolin-4-yl)amino)benzenesulfonamide], for which the Ki stood at 245 nM on hCA IX, 66.3 nM on hCA II, 361 nM at hCA I and 66.7 nM on hCA XII.
Take `NS(=O)(=O)c1ccc(Nc2ncnc3ccc(-c4ccsc4)cc23)cc1` [Compound 4f, 4-((6-(thiophen-3-yl)quinazolin-4-yl)amino)benzenesulfonamide]: the inhibition constant (Ki) came to 86.5 nM on hCA IX, 37.1 nM at hCA II, 60.9 nM at hCA I and 89.5 nM on hCA XII. Further, at hCA I, the “folds higher potency against hCA I when” value is given as 4 folds.
Take `NS(=O)(=O)c1ccc(Nc2ncnc3ccc(Br)cc23)cc1` [Compound 3a]: the Ki on hCA IX came to 174 nM; at hCA II, 8.7 nM; on hCA I, 89.4 nM; on hCA XII, 46.5 nM. For the same molecule, at hCA II, the “folds of potency compared to AAZ” value was determined as 1.4 folds. In addition, the “folds higher potency against hCA I when” value on hCA I was 2.8 folds.
Regarding `NS(=O)(=O)c1ccc(Nc2ncnc3ccc(-c4ccc(C=O)cc4)cc23)cc1` [Compound 4b, 4-((6–(4-formylphenyl)quinazolin-4-yl)amino)benzenesulfonamide], the values for the inhibition constant (Ki) on hCA IX, at hCA I and on hCA XII were 86.9 nM, 651 nM and 67.4 nM, respectively.
On to `NS(=O)(=O)c1cccc(Nc2ncnc3ccc(-c4ccc(C=O)o4)cc23)c1` [Compound 4i, 3-((6–(5-formylfuran-2-yl)quinazolin-4-yl)amino)benzenesulfonamide], for which the Ki at hCA IX amounted to 488 nM; at hCA II, 2420 nM; on hCA I, 5580 nM; at hCA XII, 52.7 nM.
On to `NS(=O)(=O)c1ccc(Nc2ncnc3ccc(-c4ccc(F)cc4)cc23)cc1` [Compound 4c, 4-((6–(4-fluorophenyl)quinazolin-4-yl)amino)benzenesulfonamide], for which the inhibition constant (Ki) at hCA IX was determined as 560 nM; at hCA II it was 47.1 nM; on hCA I it was 931 nM; on hCA XII it was 93 nM.

The values above are taken from publication PMC8973350, “4-Anilinoquinazoline-based benzenesulfonamides as nanomolar inhibitors of carbonic anhydrase isoforms I, II, IX, and XII: design, synthesis, in-vitro, and in-silico biological studies” (Journal of Enzyme Inhibition and Medicinal Chemistry, 2022).
